Data set [1] concerns amastigote of L. (L.) amazonensis. The arrangement: method as in doi:10.1016/j.poly.2014.05.004. The note with it: cited from earlier work.
In data set [2] the test system is murine peritoneal macrophages. Description: Cytotoxicity (MTT) in murine peritoneal macrophages. It is filed as cell-based, Balb/c (Mus musculus) mice. How it is done:
Peritoneal macrophages were extracted from Balb/c (Mus musculus) mice, from colonies of the Central Vivarium at the INPA, with the approval of the Ethics Committee on the Use of Animals (CEUA - INPA 023/2020; Appendix A). The animals were anesthetized with ketamine hydrochloride (Dopalen®), and a ventral incision was made. The RPMI medium was introduced; and the abdominal massage was performed for macrophage activation, followed by aspiration, and centrifuged at 1,500 g for 10 min. Cell concentration was adjusted to 10[4] macrophages/mL[6].
(§1) The assay was performed in 96-well plates (KASVI®). The RPMI medium was added to the cells at a concentration of 10[4] cells/mL/well. The metal complexes were added at concentrations of […] in triplicate as […], and Glucantime® was used at the same concentration as the metal complexes. The negative controls used DMSO at 4 concentrations (2%, 1%, 0.50%, and 0.25%), and the RMPI medium containing the cells remained exposed to the substance for up to 24, 48, and 72 h.
(§2) After each period, a solution of [3-(4,5-dimethylthiazol-2yl) -2,5-diphenyltetrazolium] bromide (MTT) was added to the wells at (concentration of 0.5 mg/mL). The plates were incubated for 4 h at 37 °C and then subjected to spectrophotometry (Biotek®) at an absorbance of 590 nm. Three independent trials were performed with peritoneal macrophages and human monocytes.

The subject of data set [3] is amastigote forms of L. (L.) amazonensis internalized in murine peritoneal macrophages. Description: Assay with amastigote forms of L. (L.) amazonensis in peritoneal macrophages. Format: cell-based, Leishmania (Leishmania) amazonensis. How it is done:
(§3) The assay against amastigote forms was performed using murine peritoneal macrophages and human monocytes, obtained as described for the cytotoxicity assay. The cells were incubated for 48 h in a 24 well-plate containing glass coverslips with the RPMI medium, and cell volume adjusted to 10[5] macrophages/monocyte/mL.
(§4) The adhered cells were infected with promastigote forms of Leishmania spp. and left for 2 h. The test substances were then added at the concentrations used in previous trials and exposed for 24, 48, and 72 h. Coverslips were stained using a Panoptic kit (Laborclin® - Laborclin Products for Laboratories Ltd, Pinhais, Brazil) and quantified using optical microscopy at 400 × magnification. A total of 100 cells were quantified to evaluate the number of infected and uninfected macrophages and internalized amastigotes. Three independent assays were performed on peritoneal macrophages and human monocytes.
(§5) The SI is the relationship between the cytotoxic activity of the tested compound and its anti-leishmanial activity. In our study, the SI was calculated from the ratio of cytotoxicity for macrophages/monocytes with a cytotoxic concentration at 50% (CC50) and action against amastigote forms in each of these cell types with an inhibitory concentration at 50% (IC50), using the equation: SI = CC50IC50-AMA^3
(§6) Statistical analysis was performed using linear regression to calculate IC50 using GraphPad Prism® (GraphPad Software Inc. version 6.0, for Windows). Results are expressed as mean ± standard deviation.

The subject of data set [4] is lesions caused by L. (V.) guyanensis. Description: Topical treatment of lesions in hamsters infected with L. (V.) guyanensis. Format: in vivo, Mesocricetus auratus. How it is done: (§7) To prepare the Carbopol®-based gel, Nipagin® was mixed with distilled water until its total solubilization, and then Carpobol® was added. Then, the metal complex was added and incorporated separately in each gel, and triethonolamine was added gradually until a thick gel was obtained. Finally, the metal complexes were mixed at a concentration of 3 mg/L, a value defined for comparative purposes with the positive control of the study (Glucantime®) administered at the same concentration via the intramuscular (IM) route.
(§8) For the assays, 72 adult male aged 60-days golden hamsters (Mesocricetus auratus) that were free of pathogens and had been previously obtained from the Central Vivarium at the INPA (CEUA 060/2018) were used [Appendix C]. The animals were housed in stainless steel cages in air-conditioned rooms, with controlled light, temperature (22-25 °C), humidity (50-60%), and food and water ad libitum.
Animals were separated into six groups. Five groups were infected with 100 µL of a solution containing 10[6] promastigote/mL of Leishmania spp. The first experiment involved 36 animals infected with L. (L.) amazonensis, and the second experiment involved 36 animals infected with L. (V.) guyanensis. Animals were divided into the following groups: […]
To evaluate the course of infection, the total volume of the lesion (length, width, and height) was measured using a caliper (Zaas® Precision). […]
For parasitological studies, a sample of the tissue from the lesion region lesion in each animal was sectioned, and the fragment was printed on a glass slide and stained using the Panoptic kit (Laborclin®). The slides were evaluated using optical microscopy, 30 fields were counted, and the analysis and quantification of infected and uninfected cells and the quantity of internalized amastigote forms were performed. […] After this period, an aliquot containing the fragments was evaluated using optical microscopy for parasitological analysis. […]

Data set [5] concerns amastigote forms of L. (V.) guyanensis in murine peritoneal macrophages. The experiment in a line: Assay with amastigote forms of L. (V.) guyanensis in peritoneal macrophages. Format: cell-based, Leishmania (Viannia) guyanensis. On the procedure:
as §3, §4, §5, §6

In data set [6] the test system is promastigote forms of Leishmania (Leishmania) amazonensis (IM5584). Description: Assay with promastigote forms, L. (L.) amazonensis. Format: cell-based. How it is done: (§9) We used the species L. (Leishmania) amazonensis [L. (L.) amazonensis] (MHOM/BR/2009/IM5584) and L. (Viannia) guyanensis [L. (V.) guyanensis] (MHOM/BR/1975/M4147), which had been cultivated in the biphasic medium Novy - MacNeal - Nicolle (NNN) and amplified in the RPMI liquid medium (Himedia®). The culture was centrifuged for 15 min at 4,400 g. Parasites were adjusted to a concentration of 10[4] parasites/mL.
(§10) The parasites were used at a concentration of 10[4] parasites/mL. The assay was performed in 96-well plates (KASVI®), and then the same procedure and concentrations of the substances were used in the cytotoxicity assay, with negative control and culture medium containing parasites. The activity of the complexes was evaluated at 24, 48, and 72 h intervals using a Neubauer chamber. In addition, cellular viability was evaluated using the assay. Three independent tests were conducted.
as §6

The subject of data set [7] is lesions caused by L. (L.) amazonensis. Description: Topical treatment of lesions in hamsters infected with L. (L.) amazonensis. It is filed as in vivo, Mesocricetus auratus. How it is done: as §7, §8
Animals were separated into six groups. Five groups were infected with 100 µL of a solution containing 10[6] promastigote/mL of Leishmania spp. The first experiment involved 36 animals infected with L. (L.) amazonensis, and the second experiment involved 36 animals infected with L. (V.) guyanensis. Animals were divided into the following groups:
• Group I: Uninfected control • Group II: Untreated, infected control • Group III: Infected and treated with Glucantime® (IM) • Group IV: Infected and treated with Ag1 (lesions treated topically once a day) • Group V: Infected and treated with Ag2 (lesions treated topically once a day) • Group VI: Infected and treated with gel without the addition of complexes (lesions treated topically once a day)
To evaluate the course of infection, the total volume of the lesion (length, width, and height) was measured using a caliper (Zaas® Precision). Animals were weighed once per week. After 30 days of treatment, the animals were euthanized using ketamine hydrochloride (Dopalen®) combined with xylazine hydrochloride (Anasedan®) following the Animal Use Ethics Commission (CEUA) protocols (060/2018).
For parasitological studies, a sample of the tissue from the lesion region lesion in each animal was sectioned, and the fragment was printed on a glass slide and stained using the Panoptic kit (Laborclin®). The slides were evaluated using optical microscopy, 30 fields were counted, and the analysis and quantification of infected and uninfected cells and the quantity of internalized amastigote forms were performed. Fragments of each animal’s skin lesions and liver were also sectioned and cultured in an NNN medium for 7 days. After this period, an aliquot containing the fragments was evaluated using optical microscopy for parasitological analysis.
For the in vivo results, we used two-way analysis of variance to evaluate the statistical significance between the groups, followed by the Tukey test to compare the means of the groups at a 95% confidence interval.

The test system of data set [8] is amastigote forms of L. (L.) amazonensis in human monocytes. The experiment in a line: Assay with amastigote forms of L. (L.) amazonensis in human monocytes. Format: cell-based, Leishmania (Leishmania) amazonensis. How it is done: as §3, §4, §6
In data set [9] the test system is amastigote forms of L. (V.) guyanensis in human monocytes. Description: Assay with amastigote forms of L. (V.) guyanensis in human monocytes. It is filed as cell-based, Leishmania (Viannia) guyanensis. On the procedure: as §3, §4, §6
Data set [10] has as its system human monocytes. The experiment in a line: Cytotoxicity (MTT) in human monocytes. Format: cell-based. How it is done:
Human monocytes were obtained after approval from the Research Ethics Committee (CEP-UFAM: 29406319.2.0000.5020) (Appendix B). Blood samples were collected from all patients. Phosphate-buffered saline (PBS) 1 x was added, and the blood/PBS was added gently on Ficoll-Histopaque (Sigma-Aldrich®) [density of 1077] and centrifuged for 30 min/200 g[7]. Peripheral blood mononuclear cells were collected, added PBS 1 x, and centrifuged for 3 min at 400 × g. The cell concentration was adjusted to 10[4] monocytes/mL[7].
as §1, §2

In data set [11] the test system is promastigote forms of Leishmania (Viannia) guyanensis (M4147). Description: Assay with promastigote forms, L. (V.) guyanensis. It is filed as cell-based. How it is done: as §9, §10, §6

Values after ≈ are worked out from the molar mass of the structure shown. Read-outs that look alike come from different tables or passages of the source.

The term IC50 denotes the concentration needed to halve the response being measured.

Consider `C[C@@H]1[C@H](O)[C@@H](C)/C=C/C=C/C=C/C=C/C=C/C=C/C=C/[C@H](O[C@@H]2O[C@H](C)[C@@H](O)[C@H](N)[C@@H]2O)C[C@@H]2O[C@](O)(C[C@@H](O)C[C@@H](O)[C@H](O)CC[C@@H](O)C[C@@H](O)CC(=O)O[C@H]1C)C[C@H](O)[C@H]2C(=O)O` [amphotericin B®, amphotericin B], for which the IC50 amastigote in data set [1] is listed as 1.20 µg/mL (≈ 1.3 µM).

Regarding `C1N2CN3CN1CP(C2)C3.C1N2CN3CN1CP(C2)C3.C1N2CN3CN1CP(C2)C3.C1N2CN3CN1CP(C2)C3.F[B-](F)(F)F.[Ag+]` [Ag1, [Ag (PTA)4]BF4], the “Cytotoxicity (in words)” value in [2] and in [10] was “toxic” each time. For the same compound, the 50% inhibitory concentration (IC50) in [3] (24 h) amounted to 6.09 ± 0.47 µM; in data set [3] (48 h), 14.9 ± 0.41 µM; in data set [3] (72 h), 23.8 ± 1.51 µM; in data set [5] (24 h), 90.51 ± 0.7 µM; in [5] (48 h), 105.1 ± 0.42 µM; in data set [5] (72 h) it was 116 ± 1.58 µM. For the same compound, the IC50 in data set [6] (L. (L.) amazonensis (IM5584), 24 h, read-out: IC50 values, promastigote forms) was under 10 µM; in data set [6] (L. (L.) amazonensis (IM5584), 48 h, read-out: IC50 values, promastigote forms), 69.2 ± 3.03 µM; in data set [6] (L. (L.) amazonensis (IM5584), 72 h, read-out: IC50 values, promastigote forms), 104 ± 1.47 µM; in data set [6] (L. (L.) amazonensis, read-out: Activity class according to IC50, promastigotes), under 10 µM; in data set [8] (24 h), 23.3 ± 1.04 µM; in [8] (48 h), 69.04 ± 0.34 µM. Also, the IC50 came to 150.7 ± 0.91 µM in [8] (72 h); 109.2 ± 0.63 µM in data set [9] (24 h); 186.6 ± 0.57 µM in data set [9] (48 h); 270.3 ± 0.25 µM in data set [9] (72 h); 75.14 ± 0.53 µM in data set [11] (24 h); 130 ± 2.94 µM in data set [11] (48 h). Besides, the half-inhibitory concentration (IC50) in data set [11] (72 h) is 228.9 ± 1.26 µM. The “Number of amastigotes internalized in lesion” value in [4] (compared to the treated groups) was “highest number”. Also, in data set [4] (statistical difference compared to Glucantime), the “Number of infected cells in lesion fragments” value was “largest number of infected cells”. For the same compound, the “Infected cells / internalized amastigotes in lesion fragments” value in [7] (after 30 days of treatment) is reported as “greater number of internalized amastigotes”. Moreover, the “Lesion volume (in words)” value in [7] (gel topically 0.3 mg/day once a day, Glucantime IM 3 mg (Sb5)/kg/day, 30 days, Ag2 effect after the 14th day) was “evolution of lesions”.

These data come from publication PMC9009886, “In vitro and in vivo Anti-leishmanial Potential of [Ag (PTA) 4 ]BF 4 and [Ag(HBPz 3 )(PPh 3 )] Silver Complexes” (Revista da Sociedade Brasileira de Medicina Tropical, 2022).
